This is an account of results in patent US4185106A, “Pyridones as antidandruff agents” (Hoechst Aktiengesellschaft, priority 1972, dated 1980).

Structures can show the parent of a compound that is named as a salt.

One series concerns skin. Conditions: J. Soc. Cosmet. Chem. 23 (1972), pages 100, 112; cited from earlier work.
For series [1] the following is noted: prior art compounds, cited from earlier work.
The nature of a further series: in vivo. The source says: [formula] a=ethanolamine salt of 1-hydroxy-4,6-dimethyl-2-pyridone b=zinc salt of 1-hydroxy-4,6-dimethyl-2-pyridone c=zinc salt of 1-hydroxy-4-methyl-6-(2,4,4-trimethyl-pentyl)2-pyridone d=ethanolamine salt of 1-hydroxy-4-methyl-6-cyclohexyl-2-pyridone, administered in starch mucilage e=zinc salt of 1-hydroxy-4-methyl-6-cyclohexyl-2-pyridoneand [formula]

In the next series the test system is dandruff. The following applies: half-side washing repeated over several weeks at determined intervals.

For the molecule `On1ccccc1=S.[Na]` [sodium-1-hydroxy-2-pyridine-thione], in the series on skin, the dermal toxicity entry is on record as “considerable dermal toxicity”. Moreover, the stability to hydrolysis result in series [1] is listed as “not stable to hydrolysis”.
What is called LD50 is the dose expected to kill half of the subjects tested. A lower LD50 goes with a more toxic substance. In turn, `Cc1cc(C2CCCCC2)n(O)c(=O)c1` [d, ethanolamine salt of 1-hydroxy-4-methyl-6-cyclohexyl-2-pyridone] displayed an LD50 in the series “in vivo” (in vivo) of 5500 mg/kg.
Regarding `Cc1cc(C)n(O)c(=O)c1` [a, ethanolamine salt of 1-hydroxy-4,6-dimethyl-2-pyridone], in the series “in vivo” (in vivo), the LD50 is over 4480 mg/kg.
On to `[O-]n1ccccc1=S.[O-]n1ccccc1=S.[Zn+2]` [g, zinc salt of 1-hydroxy-2-pyridine-thione], for which, in the series on dandruff, the “removal of dandruff after standardized washing” value is listed as “dandruff still showed in many cases”. The LD50 in the series “in vivo” (species and route not given) stood at 700 mg/kg. In addition, the sensitivity to oxidation entry in series [1] (mild oxidizing agents form 2,2'-dithio-bis(pyridine-1-oxide)) is recorded as “sensitive to oxidation”.
As to `Cc1cc(C)n([O-])c(=O)c1.Cc1cc(C)n([O-])c(=O)c1.[Zn+2]` [b, zinc salt of 1-hydroxy-4,6-dimethyl-2-pyridone], the LD50 entry in “in vivo” (species and route not given) is “more than 6400 mg/kg”.
Take `On1ccccc1=S` [1-hydroxy-2-pyridine-thione]: in series [1], the stability to heat entry is listed as “sensitive to heat” and the stability to light entry is “not stable to light”.
As for `Cc1cc(C2CCCCC2)n([O-])c(=O)c1.Cc1cc(C2CCCCC2)n([O-])c(=O)c1.[Zn+2]` [e, zinc salt of 1-hydroxy-4-methyl-6-cyclohexyl-2-pyridone], the LD50 result in the series “in vivo” (species and route not given) is reported as “more than 6400 mg/kg”.
Turning to `Cc1cc(CC(C)CC(C)(C)C)n([O-])c(=O)c1.Cc1cc(CC(C)CC(C)(C)C)n([O-])c(=O)c1.[Zn+2]` (stereo not drawn) [c, zinc salt of 1-hydroxy-4-methyl-6-(2,4,4-trimethyl-pentyl)2-pyridone], in “in vivo” (species and route not given), the LD50 entry is on record as “more than 6400 mg/kg”.
